Measurements published in patent publication US20190307731A1, “ARYL HYDROCARBON RECEPTOR MODULATOR” (Ariagen, Inc., priority 2016, published 2019).
Where two headings read alike, the source gives them in different places.

Molecular target: T1, native (Human Hepatoma Huh-7) AhR receptor (Homo sapiens, UniProt P35869)
T1 construct: expression of native (Human Hepatoma Huh-7) AhR receptor reporter gene cells; endogenous in cells; host or cells: Human hepatoma Huh-7 cells carrying a firefly luciferase reporter vector
T1 sequence (P35869 11-848): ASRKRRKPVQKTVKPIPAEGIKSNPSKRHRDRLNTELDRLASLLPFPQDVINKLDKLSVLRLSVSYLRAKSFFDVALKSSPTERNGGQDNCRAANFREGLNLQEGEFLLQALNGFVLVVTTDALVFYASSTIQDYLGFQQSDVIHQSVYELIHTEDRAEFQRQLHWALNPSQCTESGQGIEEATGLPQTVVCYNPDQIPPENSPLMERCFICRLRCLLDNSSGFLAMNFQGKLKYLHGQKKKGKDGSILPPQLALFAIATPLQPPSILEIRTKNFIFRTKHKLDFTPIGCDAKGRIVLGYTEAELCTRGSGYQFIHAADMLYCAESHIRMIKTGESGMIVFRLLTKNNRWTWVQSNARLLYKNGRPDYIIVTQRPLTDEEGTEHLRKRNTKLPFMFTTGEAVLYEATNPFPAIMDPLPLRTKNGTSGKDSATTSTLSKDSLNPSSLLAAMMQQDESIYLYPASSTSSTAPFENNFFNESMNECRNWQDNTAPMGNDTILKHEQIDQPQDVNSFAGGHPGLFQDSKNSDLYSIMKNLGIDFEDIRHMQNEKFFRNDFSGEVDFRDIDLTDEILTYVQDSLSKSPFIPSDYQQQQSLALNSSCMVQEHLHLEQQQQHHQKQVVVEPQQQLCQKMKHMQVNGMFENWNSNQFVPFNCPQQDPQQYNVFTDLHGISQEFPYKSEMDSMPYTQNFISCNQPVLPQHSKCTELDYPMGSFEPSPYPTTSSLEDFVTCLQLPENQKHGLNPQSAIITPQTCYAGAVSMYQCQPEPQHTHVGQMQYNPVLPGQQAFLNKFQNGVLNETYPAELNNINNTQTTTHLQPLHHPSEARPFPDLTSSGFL
Test: AhR agonism assay (luciferase reporter gene cells)
Format: cell-based
Procedure: Assay Materials (plasmids): expression of native (Human Hepatoma Huh-7) AhR receptor reporter gene cells, the reporter vector includes functional firefly luciferase gene linked to upstream receptor-specific genetic response elements (GRE).
The AhR agonism assay comprises the following three steps:
1. Cell implantation: a suspension of AhR receptor cells was prepared in cell recovery medium (CRM; FBS containing 10% activated carbon). Then, the prepared suspension (100 μl) was dispensed into wells of a white 96-well culture plate.
2. Right before the beginning of the experiment, Master Stocks were diluted to “2× concentration” treatment media with appropriate compound screening media (CSM: FBS containing 10% activated carbon). The test compounds were subjected to gradient dilution with CSM medium containing 0.2% DMSO, so that the final concentration of DMSO in each experimental well for each treatment group was 0.1%. […] The experimental plate was placed in an incubator at 37° C. for 24 h.
3. Fluorescence detection and analysis: after completion of the incubation, the treatment media were discarded and 100 μL/well of luciferase detection reagent was added. The Ave RLU (average relative fluorescence intensity) of each well and the coefficient of variation for each experimental group were determined. The activity of AhR receptor with various concentrations of the test compounds was quantitatively determined using a ratio of Ave RLU^Test Cmpd of various concentrations of the test compounds in the experimental group to Ave RLU^Vehicle of the blank control group, and fold activation and EC50 were determined.
For data processing method, refer to J. Biomol.

| Compound | EC50 | EC50 (AhR receptor reporter gene cells, 24 h incubation at 37° C., luciferase readout, read-out: EC50) |
| --- | --- | --- |
| COC(=O)c1nsc(C(=O)c2c[nH]c3ccc(F)cc23)n1 [Compound 13] | 1 to 10 µM |  |
| COC(=O)c1nsc(C(=O)c2c[nH]c3ccc(OC)cc23)n1 [Compound 14] | 1 to 10 µM |  |
| CC(C)c1ncc(C(=O)c2c[nH]c3ccccc23)s1 [Compound 10] |  | 10 to 100 µM |
